{"source": "ChEMBL document CHEMBL5120961", "about": "“N-Arylimidazoliums as Highly Selective Biomimetic Antimicrobial Agents” (J Med Chem, 2022)", "key": {"Staphylococcus aureus [1]": {"system": "Staphylococcus aureus", "assay": "Antibacterial activity against methicillin-resistant Staphylococcus aureus ATCC 43300 assessed as inhibition of bacterial growth incubated for 16 to 18 hrs by broth microdilution method", "type": "functional", "conditions": "time 16-18 hrs"}, "Staphylococcus aureus [2]": {"system": "Staphylococcus aureus", "assay": "Antibacterial activity against Staphylococcus aureus ATCC 25923 assessed as inhibition of bacterial growth incubated for 16 to 18 hrs by broth microdilution method", "type": "functional", "conditions": "time 16-18 hrs"}, "Escherichia coli": {"system": "Escherichia coli", "assay": "Antibacterial activity against Escherichia coli ATCC 25922 assessed as inhibition of bacterial growth incubated for 16 to 18 hrs by broth microdilution method", "type": "functional", "conditions": "time 16-18 hrs"}, "Erythrocyte": {"system": "Erythrocyte", "assay": "Hemolytic activity in rabbit erythrocytes incubated for 1 hr", "type": "toxicity, cell-based, Oryctolagus cuniculus"}, "[3]": {"assay": "Selectivity ratio of HC5 for hemolytic activity in rabbit erythrocytes to MIC for antibacterial activity against methicillin-resistant Staphylococcus aureus ATCC 43300", "type": "toxicity, cell-based"}}}
{"smiles": "CCCCCCCC[n+]1ccn(CCCCn2cc[n+](CCCCCCCC)c2)c1.[Br-].[Br-]", "values": [{"measurement": "MIC", "setting": "Staphylococcus aureus [1]", "result": 8, "unit": "µg/mL"}, {"measurement": "MIC", "setting": "Staphylococcus aureus [2]", "result": 4, "unit": "µg/mL"}, {"measurement": "MIC", "setting": "Escherichia coli", "result": 32, "unit": "µg/mL"}, {"measurement": "HC5", "setting": "Erythrocyte", "result": 400, "unit": "µg/mL"}, {"measurement": "selectivity ratio", "setting": "[3]", "result": 50}]}
{"smiles": "CC[n+]1ccn(-c2ccc(C#Cc3ccc(-n4cc[n+](CC)c4)cc3)cc2)c1.[Br-].[Br-]", "values": [{"measurement": "MIC", "setting": "Staphylococcus aureus [1]", "result": 64, "unit": "µg/mL"}, {"measurement": "MIC", "setting": "Staphylococcus aureus [2]", "result": 64, "unit": "µg/mL"}, {"measurement": "MIC", "setting": "Escherichia coli", "result": 8, "unit": "µg/mL"}, {"measurement": "HC5", "setting": "Erythrocyte", "result": 8000, "unit": "µg/mL"}, {"measurement": "selectivity ratio", "setting": "[3]", "result": 125}]}
{"smiles": "CCCC[n+]1ccn(-c2ccc(C#Cc3ccc(-n4cc[n+](CCCC)c4)cc3)cc2)c1.[Br-].[Br-]", "values": [{"measurement": "MIC", "setting": "Staphylococcus aureus [1]", "result": 4, "unit": "µg/mL"}, {"measurement": "MIC", "setting": "Staphylococcus aureus [2]", "result": 2, "unit": "µg/mL"}, {"measurement": "MIC", "setting": "Escherichia coli", "result": 8, "unit": "µg/mL"}, {"measurement": "HC5", "setting": "Erythrocyte", "result": 2000, "unit": "µg/mL"}, {"measurement": "selectivity ratio", "setting": "[3]", "result": 500}]}
{"smiles": "CCCCCC[n+]1ccn(-c2ccc(CCc3ccc(-n4cc[n+](CCCCCC)c4)cc3)cc2)c1.[Br-].[Br-]", "values": [{"measurement": "MIC", "setting": "Staphylococcus aureus [1]", "result": 1, "unit": "µg/mL"}, {"measurement": "MIC", "setting": "Staphylococcus aureus [2]", "result": 0.5, "unit": "µg/mL"}, {"measurement": "MIC", "setting": "Escherichia coli", "result": 4, "unit": "µg/mL"}, {"measurement": "HC5", "setting": "Erythrocyte", "result": 1000, "unit": "µg/mL"}, {"measurement": "selectivity ratio", "setting": "[3]", "result": 1000}]}
{"smiles": "C(#Cc1ccc(-n2cc[n+](Cc3ccccc3)c2)cc1)c1ccc(-n2cc[n+](Cc3ccccc3)c2)cc1.[Br-].[Br-]", "values": [{"measurement": "MIC", "setting": "Staphylococcus aureus [1]", "result": 1, "unit": "µg/mL"}, {"measurement": "MIC", "setting": "Staphylococcus aureus [2]", "result": 0.5, "unit": "µg/mL"}, {"measurement": "MIC", "setting": "Escherichia coli", "result": 2, "unit": "µg/mL"}, {"measurement": "HC5", "setting": "Erythrocyte", "result": 200, "unit": "µg/mL"}, {"measurement": "selectivity ratio", "setting": "[3]", "result": 200}]}
{"smiles": "C(#Cc1ccc(-n2ccnc2)cc1)c1ccc(-n2ccnc2)cc1", "values": [{"measurement": "MIC", "setting": "Staphylococcus aureus [1]", "result": "> 500", "unit": "µg/mL"}, {"measurement": "MIC", "setting": "Staphylococcus aureus [2]", "result": "> 500", "unit": "µg/mL"}, {"measurement": "MIC", "setting": "Escherichia coli", "result": "> 500", "unit": "µg/mL"}]}
